Reference: US20110178396A1, “Nicotinamide Derivatives” (CRC FOR BIOMEDICAL IMAGING DEVELOPMENT LTD., priority 2008, published 2011)

Tested on: B16F0 melanoma tumour
Assay: Biodistribution in B16 melanoma bearing mice
Format: in vivo, C57BL/6J mice
Conditions: B16 melanoma bearing mice
Description: Animal experiments were performed in compliance with the NHMRC Australian Code of Practice for the care and use of animals for scientific purposes. Female C57BL/6J black and BALB/c nude albino mice of 5 weeks age were obtained from the Animal Resources Centre, Western Australia. B16F0 murine melanoma cells were originally obtained from European Collection of Cell Cultures (UK) and A375 human amelanotic melanoma cells were originally obtained from American Type Culture Collection (USA). Before transplantation, B16F0 and A375 melanoma cells were maintained as a monolayer in RPMI culture medium supplemented with 10% foetal calf serum and antibiotics and passaged with trypsinisation. Early passages were frozen and stored in liquid nitrogen. Cells were passaged to P=10 and then discarded. Frozen aliquots were grown in a monolayer culture to between 80-95% confluence and for transplantation were trypsinised and washed with Ca^2+ and Mg^2+ free phosphate buffered saline (PBS). For inoculation, B16F0 melanoma cells were resuspended in Ca^2+ and Mg^2+ free PBS at 3 or 5×10^6 viable cells per ml and 0.1 ml was subcutaneously injected at the left flank of 6-7 weeks old C57BL/6J mice. Eleven days later, tumours could be palpated in >98% of inoculated animals. A375 human melanoma cells were resuspended at 1×10^7 viablecells per ml and 0.1 ml was injected subcutaneously at the left flank of 6 weeks old BALB/c nude mice and 25-26 days later tumours could be palpated with ˜60% of inoculated animals developing tumours.
Eleven days (B16F0 melanoma) and 25 days (A375 human melanoma) after tumour transplantation, the [^18F]nicotinamides (0.5-1.5 MBq, 100 μl) and [^123I]nicotinamide (0.37-0.74 MBq, 100 μl) derivatives were injected intravenously via the tail vein into mice (15-18 g). Time points of 1, 3, 6, 24, 48, 72 h after injection were chosen for determining the distribution of each compound in various organs and tissues for the iodine-123 labelled compounds and between 15 min and 6 hours (e.g. 15 min, 30 min, 1 h, 2 h, 4 h or 6 h) were chosen for the ^18F-labelled compounds. At defined times post injection, groups of mice (n=5) were weighed, sacrificed by CO2 administration followed by cervical dislocation and dissected. Selected organs were weighed and their radioactivity measured with a γ-counter. The remaining activity in the carcass was also determined in order to obtain the total activity in the mouse at defined time points. The fraction of injected activity (% ID) in the organ was calculated by comparison with suitable dilutions of the injected dose. Then, the radioactivity concentration in the organ (% ID/g) was found by dividing the % ID for each organ by the weight of the organ.

## CCN(CC)CCNC(=O)c1ccc(F)nc1 [[^18F]MEL2, 6-Fluoro-N-[2-(diethylamino)ethyl]nicotinamide]
15 min
  uptake BLOOD: 2.048 % ID/g
  uptake BONE: 3.493 % ID/g
  uptake BRAIN: 2.471 % ID/g
  uptake EYES: 14.678 % ID/g
  uptake GIT: 5.421 % ID/g
  uptake HEART: 3.153 % ID/g
  uptake KIDNEY: 14.117 % ID/g
  uptake LIVER: 10.148 % ID/g
  uptake LUNGS: 5.616 % ID/g
  uptake MUSCLE: 3.796 % ID/g
  uptake SKIN: 2.214 % ID/g
  uptake SPLEEN: 8.585 % ID/g
  uptake STOMACH: 9.344 % ID/g
  uptake THYROID: 5.515 % ID/g
  uptake TUMOUR: 6.970 % ID/g
30 min
  uptake BLOOD: 1.218 % ID/g
  uptake BONE: 2.078 % ID/g
  uptake BRAIN: 1.997 % ID/g
  uptake EYES: 15.976 % ID/g
  uptake GIT: 3.855 % ID/g
  uptake HEART: 1.902 % ID/g
  uptake KIDNEY: 9.595 % ID/g
  uptake LIVER: 5.825 % ID/g
  uptake LUNGS: 2.922 % ID/g
  uptake MUSCLE: 2.240 % ID/g
  uptake SKIN: 1.473 % ID/g
  uptake SPLEEN: 7.225 % ID/g
  uptake STOMACH: 6.639 % ID/g
  uptake THYROID: 2.537 % ID/g
  uptake TUMOUR: 8.582 % ID/g
1 h
  uptake BLOOD: 0.619 % ID/g
  uptake BONE: 1.368 % ID/g
  uptake BRAIN: 1.096 % ID/g
  uptake EYES: 18.808 % ID/g
  uptake GIT: 2.102 % ID/g
  uptake HEART: 0.977 % ID/g
  uptake KIDNEY: 3.446 % ID/g
  uptake LIVER: 2.813 % ID/g
  uptake LUNGS: 1.632 % ID/g
  uptake MUSCLE: 1.248 % ID/g
  uptake SKIN: 0.766 % ID/g
  uptake SPLEEN: 2.393 % ID/g
  uptake STOMACH: 3.370 % ID/g
  uptake THYROID: 3.327 % ID/g
  uptake TUMOUR: 8.376 % ID/g
2 h
  uptake BLOOD: 0.147 % ID/g
  uptake BONE: 0.578 % ID/g
  uptake BRAIN: 0.270 % ID/g
  uptake EYES: 17.281 % ID/g
  uptake GIT: 0.708 % ID/g
  uptake HEART: 0.246 % ID/g
  uptake KIDNEY: 0.676 % ID/g
  uptake LIVER: 0.693 % ID/g
  uptake LUNGS: 0.386 % ID/g
  uptake MUSCLE: 0.276 % ID/g
  uptake SKIN: 0.356 % ID/g
  uptake SPLEEN: 1.848 % ID/g
  uptake STOMACH: 1.472 % ID/g
  uptake THYROID: 0.609 % ID/g
  uptake TUMOUR: 9.416 % ID/g
3 h
  uptake BLOOD: 0.111 % ID/g
  uptake BONE: 0.624 % ID/g
  uptake BRAIN: 0.150 % ID/g
  uptake EYES: 17.276 % ID/g
  uptake GIT: 0.541 % ID/g
  uptake HEART: 0.166 % ID/g
  uptake KIDNEY: 0.394 % ID/g
  uptake LIVER: 0.491 % ID/g
  uptake LUNGS: 0.253 % ID/g
  uptake MUSCLE: 0.201 % ID/g
  uptake SKIN: 0.172 % ID/g
  uptake SPLEEN: 0.890 % ID/g
  uptake STOMACH: 0.828 % ID/g
  uptake THYROID: 0.488 % ID/g
  uptake TUMOUR: 7.753 % ID/g
6 h
  uptake BLOOD: 0.020 % ID/g
  uptake BONE: 0.515 % ID/g
  uptake BRAIN: 0.039 % ID/g
  uptake EYES: 15.591 % ID/g
  uptake GIT: 0.135 % ID/g
  uptake HEART: 0.054 % ID/g
  uptake KIDNEY: 0.075 % ID/g
  uptake LIVER: 0.123 % ID/g
  uptake LUNGS: 0.066 % ID/g
  uptake MUSCLE: 0.032 % ID/g
  uptake SKIN: 0.041 % ID/g
  uptake SPLEEN: 0.470 % ID/g
  uptake STOMACH: 0.193 % ID/g
  uptake THYROID: 0.168 % ID/g
  uptake TUMOUR: 7.747 % ID/g
Six hour period
  uptake in melanin containing tissue (tumour and eyes): high uptake
  washout in all other tissue: rapid washout
